Assay results: PMC7523589 (Analytical methods : advancing methods and applications, 2020)
Each block holds one compound with its values, some of them ahead of it.

Key:
Plk1 [1] = molecular target: T1, Plk1 (Homo sapiens, UniProt P53350); assay: fluorescence recovery assay, probe binding as a function of Plk1 concentration
Plk1 [2] = molecular target: T1, Plk1; conditions: read-out: Reported Plk1 IC50 values; cited from earlier work
full-length Plk1 = full-length Plk1 (Homo sapiens, UniProt P53350); assay: fluorescence recovery assay, competition of inhibitors with probe 4; type: binding
full-length Plk1, sequence (P53350 whole entry): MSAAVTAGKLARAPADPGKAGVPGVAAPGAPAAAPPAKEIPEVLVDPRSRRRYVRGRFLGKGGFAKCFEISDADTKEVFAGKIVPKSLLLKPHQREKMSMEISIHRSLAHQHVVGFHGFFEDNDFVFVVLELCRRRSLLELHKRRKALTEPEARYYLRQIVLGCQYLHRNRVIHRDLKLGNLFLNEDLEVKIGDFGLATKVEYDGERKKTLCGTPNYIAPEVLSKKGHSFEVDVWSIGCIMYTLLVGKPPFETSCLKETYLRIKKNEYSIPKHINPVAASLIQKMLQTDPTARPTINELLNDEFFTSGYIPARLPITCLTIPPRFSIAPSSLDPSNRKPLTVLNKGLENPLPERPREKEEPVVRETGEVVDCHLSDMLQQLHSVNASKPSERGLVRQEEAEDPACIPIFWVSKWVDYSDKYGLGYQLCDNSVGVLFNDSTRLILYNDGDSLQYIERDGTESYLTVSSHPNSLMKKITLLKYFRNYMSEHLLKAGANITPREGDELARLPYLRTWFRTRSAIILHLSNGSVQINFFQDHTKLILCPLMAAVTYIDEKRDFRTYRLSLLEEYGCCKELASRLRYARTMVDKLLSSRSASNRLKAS

T1 sequence (P53350 whole entry): as above

- Kd (Plk1 [1]; 10 nM of probe 4): 32 ± 0.78 nM
- Kd (Plk1 [1]; 20 nM of probe 4): 33 ± 0.98 nM
- Kd (Plk1 [1]; 30 nM of probe 4): 32 ± 1.1 nM
- Kd (Plk1 [1]; 40 nM of probe 4): 38 ± 1.8 nM
- Kd (Plk1 [1]; incubation time 15 minutes): 42 ± 1.5 nM
- Kd (Plk1 [1]; incubation time 30 minutes): 34 ± 1.1 nM
- Kd (Plk1 [1]; incubation time 60 minutes): 32 ± 1.5 nM
Compound: FITC-PEG-Lys(BI2536) [compound 4]

Compound: SBE13
- IC50 (Plk1 [2]): 0.2 nM

- IC50 (full-length Plk1): 31 ± 0.67 nM
Compound: CC[C@@H]1C(=O)N(C)c2cnc(Nc3ccc(C(=O)N[C@H]4CC[C@H](N5CCN(CC6CC6)CC5)CC4)cc3OC)nc2N1C(C)C [BI6727]
